# Test results as given in patent US8592451B2, “Reversible nondepolarizing neuromuscular blockade agents and methods for their use” (Cornell University, priority 2009, dated 2013).
# Tests used:
# [1] = L-cysteine adduction kinetics in vitro (HPLC); type: physicochemical; details: pH 7.4, 37° C.; for NMBA peak area / [NMBA] remaining / ln* = ln (([NMBA]t[L-cysteine]t=0)/([NMBA]t=0[L-cysteine]t)): gantacurium 200 μg/mL + L-cysteine
# Procedure: In a second experiment, to evaluate degradation in the presence of L-cysteine, buffered solutions (pH 7.4) of gantacurium, CW 002 or CW 011 were freshly prepared at 37° C. to give experimental concentrations of 1000 μg/mL (CW 002 and CW 011) and 200 μg/mL (gantacurium), after addition to and mixing with a 5% Molar excess of L-cysteine at time=0.
# The concentration of neuromuscular blocking agent/parent compound remaining at specified time points after mixing was determined by high performance liquid chromatography. The concentration of blocking agent at each time point was determined from a separately prepared reaction mixture, due to the rapid rate of L-cysteine adduction. The reaction rate constant for the second order reaction of each neuromuscular blockade agent (NMBA) with L-cysteine was derived by plotting the natural log of ([NMBA]t[L-cysteine]t=0/[NMBA]t=0[L-cysteine]t) vs. time.
# Concentrations selected were 200, 100 and 50 μg/ml which are approximately proportional to the relative potencies (ED 95) of gantacurium, CW 002 and CW 011 respectively. A degradation (adduction) pathway in the presence of L-cysteine for each of the three compounds was proposed.
# The reaction of L-cysteine with CW 002, CW 011 or gantacurium is first order in the case of both the neuromuscular blockade agent (NMBA) and L-cysteine, represented by the rate equation (1). d[Adduct]/dt=−d[NMBA]/dt=ka[NMBA][L-cysteine] (1)
# Calculation of the L-cysteine adduction half time requires experimental derivation of the reaction rate constant, ka, for each compound. The initial concentrations of NMBA and L-cysteine are unequal in the experiments conducted for this study, thus integration of equation 1 gives equation 2, where [NMBA]0 is the NMBA concentration at time equals 0 and [NMBA]t is the NMBA concentration at a time point, t.
# [formula] A plot of the ln(([NMBA]t [L-cysteine]0)/([NMBA]0 [L-cysteine]t)) versus time (ln* vs. t) gives a line, with slope equal to ka([NMBA]0−[L-cysteine]0). An adduction reaction half time can be calculated by solving for ka to be used in equation 3.
# NMBA standard solutions were prepared by a method similar to that used to prepare hydrolysis standards. The standards were prepared at 1000 μg/mL for CW 002 and CW 011 and 200 μg/mL for gantacurium.
# Solutions used for determination of NMBA concentration at the reported times for CW 002 and CW 011 were prepared as follows: L-cysteine hydrochloride monohydrate was charged to a volumetric flask in de-ionized water. A 5 mL aliquot of the L-cysteine solution (1.05 equiv. L-cysteine with respect to NMBA) was transferred by volumetric pipette to a flask held at 37.0±0.3° C. CW 002 or CW 011 was then charged to a separate 25 mL volumetric flask and diluted to volume with pH 7.4 phosphate buffer at 37.0° C. The NMBA solution was then immediately transferred to the flask containing L-cysteine to give an initial NMBA concentration of 1000 μg/mL. Solutions used for determination of gantacurium concentration versus time were prepared in a similar manner to give an initial concentration of 200 μg/mL. T=0 was defined as the time of addition of NMBA solution to L-cysteine solution. The times listed in the results table show the point of HPLC sample injection following mixing of L-cysteine and NMBA at time=0 (Table 1, below).
# Rate constants were calculated using equation (3) and the slope of the trend line derived from each data set. The strong linear correlation of the data within each set supports the use of second order kinetics for analysis of the cysteine adduction reactions.
# Reaction half times were calculated using equation 4 and the experimentally determined rate constants. The initial NMBA concentrations were chosen to reflect the relative potency observed in vivo.
# [2] = test system: twitch of the extensor digitorum; test: Reversal of neuromuscular blockade by L-cysteine or neostigmine in anesthetized rhesus monkeys; type: in vivo, rhesus monkeys (Macaca mulatta)
# Procedure: A control dose of 0.15 mg/kg CW 002 was allowed to recover spontaneously to TOF 110-120%. A second dose was given 60 minutes later, followed one minute afterwards by either neostigmine (0.05 mg/kg+atropine 0.05 mg/kg) or L-cysteine (10, 20, 30 or 50 mg/kg). Total duration and 5-95% recovery intervals were compared during spontaneous recovery vs. antagonism by L-cysteine or reversal by neostigmine.
# This series of paired comparisons was designed to generate dose-response data comparing spontaneous recovery of high doses of CW 011 (from 4 to 64× ED95) versus immediate antagonism at +1 min by an optimal dose of L-cysteine (50 mg/kg), previously determined during studies of immediate antagonism of CW 002. This experiment was done to explore the limits of chemical antagonism by L-cysteine of these olefinic diester neuromuscular blocking drugs, using CW 011 as a typical example with an intermediate duration of action. Five groups of animals first received a control dose of CW 011 at 4, 8, 16, 32 or 64× ED 95 (0.1 to 1.6 mg/kg). Sixty minutes after spontaneous recovery of the control dose to TOF 110-120%, the same dose was repeated, followed 1 min later by L-cysteine (50 mg/kg). Total duration of action and 5-95% recovery interval were compared during spontaneous recovery and following antagonism by L-cysteine
# The reversal of neuromuscular blockade by cysteine (5-50 mg/kg i.v.) was studied. Reversal was tested as follows: full paralysis was induced by injection of a dose of approximately 2-6× ED 95 of the compound in question. After spontaneous recovery of this dose, a second identical dose was given 15-30 min later. Cysteine was then given at +1 min after injection of the neuromuscular blocking drug at a point where no twitch was apparent (“immediate reversal”) or at the beginning of recovery from neuromuscular blockade at two percent twitch height (“classical reversal”). Comparisons were made among compounds with respect to rapidity and ease of cysteine reversal, by comparing 5-95% recovery times, and total durations of action (injection to 95% twitch recovery). Spontaneous recovery was compared with cysteine-accelerated recovery. […]
# [3] = test system: twitch of the extensor digitorum; test: Neuromuscular blocking potency and duration in anesthetized rhesus monkeys; type: in vivo, rhesus monkeys (Macaca mulatta)
# Procedure: Experiments were approved by the Institutional Animal Care and Use Committee of Weill Medical College of Cornell University (New York, N.Y.) and of Albany Medical College (Albany, N.Y.), where the studies were conducted. A colony of 10 adult male monkeys (Macaca mulatta) weighing 8-18 kg was studied at ˜6 week intervals. Animals were housed and cared for in accordance with the Guide for Care and Use of Laboratory Animals (National Research Council, Washington, D.C.). They were fed a standard Old World monkey diet, enriched with fruits and vegetables, and other dietary novelties and were followed throughout the study to verify normal health by physical examination, body weight, and clinical laboratory studies (Complete Blood Count, Blood Urea Nitrogen and creatinine, and liver function tests).
# On the day of each study, monkeys received ketamine (7-10 mg/kg i.m.) followed by tracheal intubation under topical anesthesia with 4% lidocaine. Ventilation was controlled at 10 mL/kg and 20 breaths/min with isoflurane (1.0-2.0%) and N2O/O2 (2:1 mixture). Ringers lactate was administered at ˜10 ml kg^−1 h^−1. Arterial pressure was monitored from a femoral, superficial tibial, or radial (22 gauge) cannula. Heart rate was measured by tachograph from the arterial pulse wave. Core temperature was kept at 36.5-38.0° C. by warming blankets. Electrocardiogram and pulse oximetry were monitored continuously.
# Needle electrodes (25 gauge) transmitting square-wave pulses of 0.2 msec duration at supramaximal voltage which were generated by a Grass S-88 stimulator (Grass Instruments, Quincy, Mass.) were placed at the peroneal nerve at the knee to elicit twitch responses of the extensor digitorum of the foot at 0.15 Hz. A small slip (10-20%) of the tendon was dissected free under sterile technique and tied to a Grass FT 10 force transducer (Grass Instruments, Quincy, Mass.) at a baseline tension of 50 gm. Train-of four stimulation (TOF, 2 Hz for 2 sec) was interposed at appropriate points, especially 1-2 min prior to NMBA dosing and following recovery of twitch to 95% of baseline, where TOF was subsequently evaluated every 1-2 min.
# Recordings of circulatory and neuromuscular data were made on a Grass 7B polygraph (Grass Instruments). A baseline period of 15-20 min was allowed for stabilization of recordings prior to dosing.^2
# Dose-response curves for twitch blockade by gantacurium, CW 002, CW 011, cisatracurium, CW002-Cys, NB 938-69, NB 1064-81, NB 802-17 (CW 001), NB 832-65, and NB 1163-79, structures of which are all shown above, were generated as follows. […] Successive doses were separated by at least three estimated half lives beyond complete recovery of the previous dose to TOF of 110-120%, which is normal for these monkeys. Only the first one or two doses yielding 5 to 99% blockade were included from any single experiment for computation of dose-response data.
# Comparative studies of spontaneous recovery versus antagonism/reversal were done at least 3 estimated half-lives following dose-response studies.
# ED 50 and ED 95 were computed from the regression of log dose vs. the logit of percentage blockade of twitch.
# CW002-Cys, the L-cysteine adduct of CW 002, was available in limited quantity and was administered in cumulative fashion to three animals to compare approximate potency and duration of effect versus its parent compound CW 002.
SMILES,"Plot Slope (ln* vs. time) ([1]; L-cysteine adduction, data of Table 1)","NMBA peak area ([1]; Trial 1, 59 Sec) [mAU's]","[NMBA] remaining ([1]; Trial 1, 59 Sec) [µM]","ln* = ln (([NMBA]t[L-cysteine]t=0)/([NMBA]t=0[L-cysteine]t)) ([1]; Trial 1, 59 Sec)","NMBA peak area ([1]; Trial 2, 67 Sec) [mAU's]","[NMBA] remaining ([1]; Trial 2, 67 Sec) [µM]","ln* = ln (([NMBA]t[L-cysteine]t=0)/([NMBA]t=0[L-cysteine]t)) ([1]; Trial 2, 67 Sec)","NMBA peak area ([1]; Trial 3, 70 Sec) [mAU's]","[NMBA] remaining ([1]; Trial 3, 70 Sec) [µM]","ln* = ln (([NMBA]t[L-cysteine]t=0)/([NMBA]t=0[L-cysteine]t)) ([1]; Trial 3, 70 Sec)","NMBA peak area ([1]; Trial 4, 78 Sec) [mAU's]","[NMBA] remaining ([1]; Trial 4, 78 Sec) [µM]","ln* = ln (([NMBA]t[L-cysteine]t=0)/([NMBA]t=0[L-cysteine]t)) ([1]; Trial 4, 78 Sec)","ka, second order rate constant of L-cysteine adduction [1] [M⁻¹ s⁻¹]","half-life at 200 μg/ml ([1]; pH 7.4 buffered solution with L-cysteine, calculated at [NMBA]0 0.000188 M (200 μg/ml), read-out: L-cysteine adduction reaction half time t1/2) [s]",effect of neostigmine given immediately after the blocking drug ([2]; immediate reversal),"classical antagonism of neuromuscular blockade by neostigmine ([2]; neostigmine given at beginning of spontaneous recovery, e.g. at 2% twitch height)","Duration (± SD/SEM), from injection to recovery of twitch to 95% of baseline ([3]; administered dose 0.04 mg/kg, spontaneous recovery) [min]","ED 95 (± SD/SEM) ([3]; twitch blockade, monkeys under isoflurane, twitch at 0.15 Hz, calculated from dose-response curve) [mg/kg]"
"COc1cc2c(cc1OC)[C@H](c1cc(OC)c(OC)c(OC)c1)[N@@+](C)(CCCOC(=O)/C=C(\Cl)C(=O)OCCC[N@+]1(C)CCc3cc(OC)c(OC)cc3[C@H]1Cc1cc(OC)c(OC)c(OC)c1)CC2 [Gantacurium, reference compound]",−0.0145,476.7,33,−0.46,384.2,27,−0.56,344.2,24,−0.62,281.5,20,−0.73,529.6,12,ineffective,showed antagonism,–,–
COc1ccc(C[C@@H]2c3cc(OC)c(OC)cc3CC[N@@+]2(C)CCCOC(=O)CCC(=O)OCCC[N@+]2(C)CCc3cc(OC)c(OC)cc3[C@H]2Cc2ccc(OC)c(OC)c2)cc1OC [NB 1163-79],–,–,–,–,–,–,–,–,–,–,–,–,–,–,–,–,–,27.2 ± 2.6,0.032 ± 0.003
